Data as given in patent publication US20050037946A1, “Methods and compositions for treating cardiovascular disease using 1722, 10280, 59917, 85553, 10653, 9235, 21668, 17794, 2210, 6169, 10102, 21061, 17662, 1468, 12282, 6350, 9035, 1820, 23652, 7301, 8925, 8701, 3533, 9462, 9123, 12788, 17729, 65552, 1261, 21476, 33770, 9380, 2569654, 33556, 53656, …” (Millennium Pharmaceuticals, Inc., priority 2003, published 2005).

Legend:
1261 mRNA = 1261 mRNA in statically cultured or shear-stressed cells (TaqMan); assay type: cell-based
From the text: (§1) This example describes the TaqMan™ procedure. The Taqman™ procedure is a quantitative, reverse transcription PCR-based approach for detecting mRNA. The RT-PCR reaction exploits the 5′ nuclease activity of AmpliTaq Gold™ DNA Polymerase to cleave a TaqMan™ probe during PCR. Briefly, cDNA was generated from the samples of interest, e.g., heart, kidney, liver, skeletal muscle, and various vessels, and used as the starting material for PCR amplification. In addition to the 5′ and 3′ gene-specific primers, a gene-specific oligonucleotide probe (complementary to the region being amplified) was included in the reaction (i.e., the Taqman™ probe). The TaqMan™ probe includes the oligonucleotide with a fluorescent reporter dye covalently linked to the 5′ end of the probe (such as FAM (6-carboxyfluorescein), TET (6-carboxy4,7,2′,7′-tetrachlorofluorescein), JOE (6-carboxy-4,5-dichloro-2,7-dimethoxyfluorescein), or VIC) and a quencher dye (TAMRA (6-carboxy-N,N,N′,N′-tetramethylrhodamine) at the 3′ end of the probe.
(§2) During the PCR reaction, cleavage of the probe separates the reporter dye and the quencher dye, resulting in increased fluorescence of the reporter. Accumulation of PCR products is detected directly by monitoring the increase in fluorescence of the reporter dye. When the probe is intact, the proximity of the reporter dye to the quencher dye results in suppression of the reporter fluorescence. During PCR, if the target of interest is present, the probe specifically anneals between the forward and reverse primer sites. The 5′-3′ nucleolytic activity of the AmpliTaq™ Gold DNA Polymerase cleaves the probe between the reporter and the quencher only if the probe hybridizes to the target. The probe fragments are then displaced from the target, and polymerization of the strand continues. The 3′ end of the probe is blocked to prevent extension of the probe during PCR. […] RNA was prepared using the trizol method and treated with DNase to remove contaminating genomic DNA. cDNA was synthesized using standard techniques.

[1] = humans; cited from earlier work
[2] = molecular target: 1722 (Protein Kinase C mu or PKD) (Homo sapiens, UniProt Q15139); conditions: Biochem Pharmacol. 2001; cited from earlier work
10653 mRNA [3] = assay: 10653 mRNA in livers of marmosets treated with lipid-lowering therapies (TaqMan); assay type: in vivo
10102 mRNA = 10102 mRNA regulation by lipid lowering drugs (TaqMan)
7301 mRNA = 7301 mRNA in livers of marmosets treated with lipid-lowering therapies (TaqMan); assay type: in vivo
From the text: (§3) This example describes the TaqMan™ procedure. The Taqman™ procedure is a quantitative, reverse transcription PCR-based approach for detecting mRNA. The RT-PCR reaction exploits the 5′ nuclease activity of AmpliTaq Gold™ DNA Polymerase to cleave a TaqMan™ probe during PCR. Briefly, cDNA was generated from the samples of interest, e.g., heart, kidney, liver, skeletal muscle, and various vessels, and used as the starting material for PCR amplification. In addition to the 5′ and 3′ gene-specific primers, a gene-specific oligonucleotide probe (complementary to the region being amplified) was included in the reaction (i.e., the Taqman™ probe). […]
(§4) During the PCR reaction, cleavage of the probe separates the reporter dye and the quencher dye, resulting in increased fluorescence of the reporter. Accumulation of PCR products is detected directly by monitoring the increase in fluorescence of the reporter dye. When the probe is intact, the proximity of the reporter dye to the quencher dye results in suppression of the reporter fluorescence. […]

8701 mRNA = 8701 mRNA in livers of marmosets treated with lipid-lowering therapies (TaqMan); assay type: in vivo
9123 mRNA = 9123 mRNA in livers of marmosets treated with lipid-lowering therapies (TaqMan); assay type: in vivo
From the text: as §3, §4

isolated rat arterioles = conditions: compared to basal tone; cited from earlier work
coronary arteries = conditions: disruption of microtubules; cited from earlier work
6169 mRNA [4] = assay: 6169 mRNA in human primary hepatocytes (TaqMan); assay type: cell-based
From the text: as §3, §4

32345 mRNA = 32345 mRNA in HUVECs (TaqMan); assay type: cell-based, human
From the text: as §3, §4

10653 mRNA [5] = assay: 10653 mRNA in livers of African Green Monkeys, cholesterol (TaqMan); assay type: in vivo; conditions: p=0.05
From the text: as §3, §4

10653 mRNA [6] = assay: 10653 mRNA in liver of ApoE knockout mice, cholesterol feeding (TaqMan); assay type: in vivo; conditions: two and six months of cholesterol feeding of ApoE knockout mice
From the text: as §3, §4

9235 mRNA = 9235 mRNA in livers of African Green Monkeys, cholesterol (TaqMan); assay type: in vivo; conditions: p=0.09
From the text: as §3, §4

9325 mRNA = 9325 mRNA in liver of ApoE knockout mice, cholesterol feeding (TaqMan); assay type: in vivo; conditions: two and six months of cholesterol feeding of ApoE knockout mice
From the text: as §3, §4

6169 mRNA [7] = assay: 6169 mRNA in liver of African Green Monkeys, lipid feeding (TaqMan); assay type: in vivo; conditions: feeding / in the diet
17729 mRNA = 17729 mRNA in ApoE knockout mouse models, cholesterol feeding (TaqMan); assay type: in vivo
From the text: as §3, §4

2569654 mRNA [8] = assay: 2569654 mRNA in livers of ApoE knock out mice with cholesterol feeding (TaqMan); assay type: in vivo; conditions: livers of ApoE knock out (KO) mice with cholesterol feeding
From the text: as §3, §4

19319 mRNA = 19319 mRNA in ApoE knock-out mice, cholesterol (TaqMan); assay type: in vivo
From the text: as §3, §4

43969 = 43969 expression in livers of ApoE knock-out mice administered cholesterol (TaqMan); assay type: in vivo
From the text: as §3, §4

554 mRNA = 554 mRNA in livers of African Green Monkeys, cholesterol; assay type: in vivo
112091 = 112091 expression in livers of African Green Monkeys, cholesterol; assay type: in vivo
54946 mRNA = 54946 mRNA in livers of Apo E knock out mice, cholesterol (microarray or RT-PCR); assay type: in vivo; conditions: livers of Apo E knock out mice relative to wild-type controls, p=0.001
9380 mRNA = 9380 mRNA in livers of marmosets (TaqMan); assay type: in vivo
2552 mRNA = 2552 mRNA in marmoset livers (TaqMan); assay type: in vivo
966 mRNA = 966 mRNA in aortic arches of mice given captopril (TaqMan); assay type: in vivo; conditions: given for 6 or 12 weeks
From the text: as §3, §4

1510 mRNA = 1510 mRNA in aortic arches of ApoE knockout mice (TaqMan); assay type: in vivo; conditions: relative to abdominal aorta, 12 weeks
From the text: as §3, §4

3533 mRNA = 3533 mRNA regulation by lipid lowering drugs (TaqMan)
From the text: as §1, §2

9462 mRNA = 9462 mRNA regulation by lipid lowering drugs (TaqMan)
From the text: as §3, §4

2569654 mRNA [9] = assay: 2569654 mRNA in marmoset models (TaqMan); assay type: in vivo
From the text: as §1, §2

glycine cleavage system = conditions: cited from earlier work

Sequence of 1722 (Protein Kinase C mu or PKD) (Q15139 whole entry): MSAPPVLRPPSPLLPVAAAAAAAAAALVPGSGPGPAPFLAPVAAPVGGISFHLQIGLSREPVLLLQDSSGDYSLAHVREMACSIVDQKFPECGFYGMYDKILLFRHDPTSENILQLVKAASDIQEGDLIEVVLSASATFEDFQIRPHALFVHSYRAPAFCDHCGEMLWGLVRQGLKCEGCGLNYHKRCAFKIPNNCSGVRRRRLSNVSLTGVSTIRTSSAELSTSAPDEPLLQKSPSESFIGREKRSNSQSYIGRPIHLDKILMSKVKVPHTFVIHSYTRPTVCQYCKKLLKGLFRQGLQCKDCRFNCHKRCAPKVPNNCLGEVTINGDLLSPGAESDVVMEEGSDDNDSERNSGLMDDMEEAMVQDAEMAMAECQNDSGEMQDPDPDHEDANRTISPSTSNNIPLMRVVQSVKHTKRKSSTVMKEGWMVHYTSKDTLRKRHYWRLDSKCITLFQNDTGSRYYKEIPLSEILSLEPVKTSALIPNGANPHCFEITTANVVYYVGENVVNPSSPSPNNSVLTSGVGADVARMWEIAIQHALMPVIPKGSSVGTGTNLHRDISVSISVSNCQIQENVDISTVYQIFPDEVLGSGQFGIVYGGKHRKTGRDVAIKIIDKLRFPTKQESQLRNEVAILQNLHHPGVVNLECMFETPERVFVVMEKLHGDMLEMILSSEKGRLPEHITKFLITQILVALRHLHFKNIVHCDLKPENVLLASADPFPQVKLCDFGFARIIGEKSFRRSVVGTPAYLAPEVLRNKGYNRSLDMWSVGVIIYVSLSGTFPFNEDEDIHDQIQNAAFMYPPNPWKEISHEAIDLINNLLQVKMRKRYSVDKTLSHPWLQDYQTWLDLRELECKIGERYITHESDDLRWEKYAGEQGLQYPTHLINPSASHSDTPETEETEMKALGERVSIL

Question: With VEGF as the compound, how does the “1261 expression in response to angiogenic/inflammatory stimuli” value (1261 mRNA) read?
Answer: The value was “transient upregulation”.

Question: And the “1261 mRNA expression, timecourse” value (1261 mRNA; 1 hour of treatment, statically cultured or shear-stressed cells)?
Answer: The value was “strong upregulation”.

Question: What about the “1261 mRNA expression” value (1261 mRNA; VEGF individually) of the same compound?
Answer: The value was “upregulated”.

Question: Which lipid profile [1] does the source give for `CC1=C(/C=C/C(C)=C/C=C/C(C)=C\C(=O)O)C(C)(C)CCC1` [13-cis retinoic acid] here?
Answer: The lipid profile was “increase total cholesterol, ILDL-cholesterol, apoB and triglyceride levels and decrease HDL-cholesterol”.

Question: For `Oc1ccc(C=Cc2cc(O)cc(O)c2)cc1` [Resveratrol], which “autophosphorylation of 1722” value [2] is on record?
Answer: Its value is “inhibit”.

Question: What does the source list for `Cc1ccc(C)c(OCCCC(C)(C)C(=O)O)c1` [gemfibrozil]?
Answer: 10653 mRNA expression (10653 mRNA [3]): downregualted; 10102 mRNA expression (10102 mRNA): significantly upregulated; 7301 mRNA expression (7301 mRNA): down-reregulated; 8701 mRNA expression (8701 mRNA): upregulated; 9123 mRNA expression (9123 mRNA): upregulated

Question: Which “1261 expression in response to angiogenic/inflammatory stimuli” value (1261 mRNA) does the source give for TNF-α here?
Answer: Its value is “transient upregulation”.

Question: With `COC(=O)Nc1nc2ccc(C(=O)c3cccs3)cc2[nH]1` [nocodazole] as the compound, how does the vasoconstriction (isolated rat arterioles) read?
Answer: Its vasoconstriction is 29.6%.

Question: What about the “vascular tension and intracellular calcium levels” value (coronary arteries) of the same compound?
Answer: Its value is “increases”.

Question: For `CC[C@H](C)C(=O)O[C@H]1CCC=C2C=C[C@H](C)[C@H](CC[C@@H]3C[C@@H](O)CC(=O)O3)[C@H]21` [Mevastatin], which “6169 mRNA upregulated” value (6169 mRNA [4]) is on record?
Answer: The value was 2.4 fold.

Question: And the “32345 mRNA expression” value (32345 mRNA)?
Answer: The value was “upregulated”.

Question: What does the source list for `CC(C)CCC[C@@H](C)[C@H]1CC[C@H]2[C@@H]3CC=C4C[C@@H](O)CC[C@]4(C)[C@H]3CC[C@]12C` [cholesterol]?
Answer: 10653 mRNA downregulated (10653 mRNA [5]): 1.5 fold; 10653 mRNA downregulated (10653 mRNA [6]): 1.3 fold; 9235 mRNA downregulated (9235 mRNA): 1.3 fold; 9325 mRNA downregulated (9325 mRNA): 1.8 fold; 6169 mRNA downregulated (6169 mRNA [7]): 1.3 fold; 17729 mRNA expression (17729 mRNA): downregulated; 2569654 mRNA expression (2569654 mRNA [8]): significantly downregulated; 19319 mRNA expression (19319 mRNA): downregulated; 43969 expression 43969: downregulated; 554 mRNA expression (554 mRNA): down-regulated; 112091 expression 112091: down-regulated; 54946 mRNA downregulated (54946 mRNA): 0.62 fold

Question: For `CC(C)(Sc1cc(C(C)(C)C)c(O)c(C(C)(C)C)c1)Sc1cc(C(C)(C)C)c(O)c(C(C)(C)C)c1` [probucol], which “10653 mRNA expression” value (10653 mRNA [3]) is on record?
Answer: Its value is “downregualted”.

Question: And the “10102 mRNA expression” value (10102 mRNA)?
Answer: Its value is “significantly upregulated”.

Question: And the “7301 mRNA expression” value (7301 mRNA)?
Answer: The value was “down-reregulated”.

Question: What about the “9123 mRNA expression” value (9123 mRNA) of the same compound?
Answer: Its value is “upregulated”.

Question: What about the “9380 mRNA expression” value (9380 mRNA) of the same compound?
Answer: Its value is “upregulated”.

Question: What about the “2552 mRNA expression” value (2552 mRNA) of the same compound?
Answer: Its value is “upregulated”.

Question: With `C[C@H](CS)C(=O)N1CCC[C@H]1C(=O)O` [captopril] as the compound, how does the “upregulation of 966 mRNA in mice aortic arches” value (966 mRNA) read?
Answer: The value was “inhibited”.

Question: And the “elevated expression of 1510 mRNA in aortic arches of ApoE knockout mice” value (1510 mRNA)?
Answer: The value was “blocked”.

Question: Which “10102 mRNA expression” value (10102 mRNA) does the source give for `O=C(O)c1cccnc1` [niacin] here?
Answer: Its value is “significantly upregulated”.

Question: And the “3533 mRNA expression” value (3533 mRNA)?
Answer: Its value is “significantly downregulated”.

Question: And the “9462 mRNA expression” value (9462 mRNA)?
Answer: Its value is “upregulated”.

Question: And the “2569654 mRNA expression” value (2569654 mRNA [9])?
Answer: Its value is “upregulated”.

Question: For `NCCS` [Cysteamine], which “inhibition of the glycine cleavage system” value (glycine cleavage system) is on record?
Answer: Its value is “potent inhibitor”.
